Reference: patent US12173322B2, “Genome-edited induced pluripotent stem cells, and cells derived therefrom, and uses thereof” (priority 2020, dated 2024)
Like-named read-outs stand apart in the source and are kept apart here.

How the values were obtained:
hKCNQ1 /mink = molecular target: T1, hKCNQ1 /mink (Homo sapiens, UniProt P51787); assay: Patch clamp electrophysiology (QPatch), hKCNQ1/mink; type: cell-based
T1 construct: Eurofins

hKir2.1 = molecular target: T2, hKir2.1 (Homo sapiens, UniProt P63252); assay: Patch clamp electrophysiology (QPatch CiPA), hKir2.1; type: cell-based; settings: for IC50: Antagonist, read-out: Estimated IC50
T2 construct: Eurofins
T2 sequence (P63252 1-427): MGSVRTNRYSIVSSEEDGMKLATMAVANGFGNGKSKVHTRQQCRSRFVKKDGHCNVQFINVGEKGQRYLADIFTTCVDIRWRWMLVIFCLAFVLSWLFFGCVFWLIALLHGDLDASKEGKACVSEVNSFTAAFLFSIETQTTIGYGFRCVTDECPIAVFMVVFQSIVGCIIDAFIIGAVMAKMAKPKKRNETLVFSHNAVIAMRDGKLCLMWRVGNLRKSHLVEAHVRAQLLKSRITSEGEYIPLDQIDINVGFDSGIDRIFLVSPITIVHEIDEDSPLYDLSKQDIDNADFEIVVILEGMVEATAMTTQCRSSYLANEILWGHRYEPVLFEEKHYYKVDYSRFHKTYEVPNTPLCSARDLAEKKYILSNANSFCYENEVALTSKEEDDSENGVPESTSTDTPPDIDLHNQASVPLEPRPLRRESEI
Procedure: Replated hiPSC-CMs were loaded with a fluorescent calcium dye and calcium transients were recorded before and after peptide addition.

T1 sequence (P51787 whole entry): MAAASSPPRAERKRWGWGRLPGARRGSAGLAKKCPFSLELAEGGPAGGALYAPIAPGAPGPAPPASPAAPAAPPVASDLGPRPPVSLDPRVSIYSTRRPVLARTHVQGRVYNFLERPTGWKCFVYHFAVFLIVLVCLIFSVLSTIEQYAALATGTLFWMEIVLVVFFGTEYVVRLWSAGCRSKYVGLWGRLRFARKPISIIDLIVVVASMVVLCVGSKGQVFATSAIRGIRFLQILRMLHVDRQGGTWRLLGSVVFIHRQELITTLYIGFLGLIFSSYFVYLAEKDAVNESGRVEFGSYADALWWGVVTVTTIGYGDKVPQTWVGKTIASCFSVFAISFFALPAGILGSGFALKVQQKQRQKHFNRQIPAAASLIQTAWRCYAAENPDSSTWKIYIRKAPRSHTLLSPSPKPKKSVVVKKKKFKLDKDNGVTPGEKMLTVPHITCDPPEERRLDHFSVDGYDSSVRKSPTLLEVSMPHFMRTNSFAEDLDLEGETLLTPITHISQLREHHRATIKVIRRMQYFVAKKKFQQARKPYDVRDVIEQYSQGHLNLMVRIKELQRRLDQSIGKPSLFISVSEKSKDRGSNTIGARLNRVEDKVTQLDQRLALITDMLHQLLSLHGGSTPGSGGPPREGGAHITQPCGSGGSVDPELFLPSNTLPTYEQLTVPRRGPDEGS

## CCS(=O)(=O)N(C)[C@H]1c2cc(C#N)ccc2OC(C)(C)[C@@H]1O (racemic) [Chromanol 293B]
hKCNQ1 /mink; 0.3 μM
  % inhibition mean: 4.24%
  % inhibition n1: 1.35%
  % inhibition n2: 7.13%
hKCNQ1 /mink; 1 µM
  % inhibition mean: 12.25%
  % inhibition n1: 9.45%
  % inhibition n2: 15.04%
hKCNQ1 /mink; 3 μM
  % inhibition mean: 22.85%
  % inhibition n1: 21.34%
  % inhibition n2: 24.36%
hKCNQ1 /mink; 10 µM
  % inhibition mean: 40.28%
  % inhibition n1: 39.37%
  % inhibition n2: 41.20%
hKCNQ1 /mink; 30 μM
  % inhibition mean: 73.92%
  % inhibition n1: 74.46%
  % inhibition n2: 73.39%
hKCNQ1 /mink; 100 µM
  % inhibition mean: 95.80%
  % inhibition n1: 96.45%
  % inhibition n2: 95.16%
hKCNQ1 /mink; read-out: Estimated IC50
  IC50: 11.5 µM

## [Ba+2].[Cl-].[Cl-] [Barium, Barium Chloride]
hKir2.1; End
  IC50: 3.6 µM
hKir2.1; Peak
  IC50: 62.3 µM
hKir2.1; End, 0.3 μM
  % inhibition mean: 7.01%
  % inhibition n1: 6.49%
  % inhibition n2: 7.53%
hKir2.1; End, 1 μM
  % inhibition mean: 18.29%
  % inhibition n1: 19.93%
  % inhibition n2: 16.65%
hKir2.1; End, 3 μM
  % inhibition mean: 41.38%
  % inhibition n1: 39.87%
  % inhibition n2: 42.88%
hKir2.1; End, 10 μM
  % inhibition mean: 80.72%
  % inhibition n1: 79.79%
  % inhibition n2: 81.66%
hKir2.1; End, 30 μM
  % inhibition mean: 93.28%
  % inhibition n1: 93.64%
  % inhibition n2: 92.93%
hKir2.1; End, 100 μM
  % inhibition mean: 98.46%
  % inhibition n1: 98.46%
  % inhibition n2: 98.47%
hKir2.1; Peak, 0.3 μM
  % inhibition mean: 2.37%
  % inhibition n1: 1.78%
  % inhibition n2: 2.96%
hKir2.1; Peak, 1 μM
  % inhibition mean: 6.45%
  % inhibition n1: 7.99%
  % inhibition n2: 4.90%
hKir2.1; Peak, 3 μM
  % inhibition mean: 12.57%
  % inhibition n1: 14.88%
  % inhibition n2: 10.25%
hKir2.1; Peak, 10 μM
  % inhibition mean: 13.31%
  % inhibition n1: 16.68%
  % inhibition n2: 9.94%
hKir2.1; Peak, 30 μM
  % inhibition mean: 31.99%
  % inhibition n1: 38.78%
  % inhibition n2: 25.19%
hKir2.1; Peak, 100 μM
  % inhibition mean: 62.64%
  % inhibition n1: 63.60%
  % inhibition n2: 61.68%
